This note sets out measurements from ChEMBL document CHEMBL4765266, “Design, synthesis and structure-activity relationships of 4-phenyl-1H-1,2,3-triazole phenylalanine derivatives as novel HIV-1 capsid inhibitors with promising antiviral activities” (Eur J Med Chem, 2020).

Active and inactive are the calls of the source. The calls are words filed in the database; no cut-off is given here.

The EC50 is the concentration at which the effect is half-maximal. What is called CC50 is the concentration at which the toxic effect on the cells reaches its halfway point. The Kd is a measure of binding affinity in units of concentration. In general, IC50 refers to the midpoint of a concentration-inhibition curve. In general, inhibition refers to the drop in the measured response relative to a control, in per cent. As usually defined, the fraction remaining is the share of the starting amount still present when the sample was taken.

Data set [1] in a line: Metabolic stability in human plasma assessed as parent compound remaining after 10 mins by LC/MS/MS method. The class given is ADME, cell-free.
The nature of data set [2]: Metabolic stability in human plasma assessed as parent compound remaining after 30 mins by LC/MS/MS method. The settings on record: 0.5 h. In kind it is ADME, cell-free.
Data set [3] in a line: Metabolic stability in human plasma assessed as parent compound remaining after 60 mins by LC/MS/MS method. As to conditions: 1 h. The class given is ADME, cell-free.
The nature of data set [4]: Metabolic stability in human plasma assessed as parent compound remaining after 120 mins by LC/MS/MS method. The settings on record: 2 h. The class given is ADME, cell-free.
Data set [5] relates to Human immunodeficiency virus 1. Nature of the data set: Antiviral activity against HIV1 NL4-3 infected in human TZM-bl cells assessed as reduction in virus induced cytopathic effect measured after 2 days by luciferase gene expression assay. The class given is functional, organism-based. As to conditions: Human immunodeficiency virus 1, NL4-3, TZM-bl, 48 h. In general terms: Damage to the host cells serves as the signal in cytopathic effect assays.

For data set [6], the system named is TZM. The data set can be described thus: Cytotoxicity against in human TZM-bl cells assessed as reduction in cell viability measured after 2 days by CytoTox-Glo cytotoxicity assay. As to conditions: 48 h.
The conditions of data set [7]: human, microsomes, 1 h.
The nature of data set [8]: Binding affinity to HIV1 NL4-3 capsid protein monomer assessed as dissociation constant by SPR analysis. Further details: species or system Human immunodeficiency virus 1. Background: SPR reads the build-up and loss of mass on a sensor chip optically.
The subject of data set [9] is Human immunodeficiency virus 1. Nature of the data set: Antiviral activity against HIV1 NL4-3 Env-deficient pseudotype virus infected in human U87/CD4/CCR5 cells assessed by reduction in viral production in late stage measured after 48 hrs by luciferase activity based single-round infection assay. The class given is functional, organism-based. The settings on record: Human immunodeficiency virus 1, NL4-3, U87/CD4/CCR5, 48 h.

For data set [10], the system named is Human immunodeficiency virus 1. The data set can be described thus: Antiviral activity against HIV1 NL4-3 Env-pseudotype virus in human U87/CD4/CCR5 cells assessed as reduction in p24 production at 10 uM by ELISA reader relative to control. The class given is functional.
The subject of data set [11] is Human immunodeficiency virus 1. The data set can be described thus: Antiviral activity against HIV1 NL4-3 Env-deficient pseudotype virus infected in human U87/CD4/CCR5 cells assessed by reduction in viral production in early stage measured after 48 hrs by luciferase activity based single-round infection assay. The class given is functional, organism-based. As to conditions: Human immunodeficiency virus 1, NL4-3, U87/CD4/CCR5, 48 h.

Data set [12] deals with U87/CD4/CCR5. Nature of the data set: Induction of HIV1 NL4-3 capsid protein assembly at 50 uM measured every 1 min for 19 mins by Spectrophotometer method. The settings on record: Human immunodeficiency virus 1.
A short description of data set [13]: Binding affinity to HIV1 NL4-3 capsid protein hexamer assessed as dissociation constant by SPR analysis. Further details: species or system Human immunodeficiency virus 1.
The nature of data set [14]: in vitro. The settings on record: human, TZM-bl cells.
Description: Selectivity index, ratio of CC50 for human TZM-bl cells to EC50 for HIV1 NL4-3 infected in human TZM-bl cells
For data set [15] the following is noted: human, microsomes, 1 h. The source holds these as a separate data set.
Data set [16] has as its system U87/CD4/CCR5. The data set can be described thus: Effect on HIV1 NL4-3 capsid protein assembly at 50 uM measured every 1 min for 19 mins by Spectrophotometer method. As to conditions: Human immunodeficiency virus 1.
Data set [17] is described as follows: in vitro. The settings on record: human, liver microsomes.
Description: Metabolic stability in human liver microsomes assessed as parent compound remaining in presence of NADPH after 1 hr by LC/MS/MS method
The conditions of data set [18]: human, microsomes, 1 h. The source holds these as a separate data set.
Description: Metabolic stability in human liver microsomes assessed as parent compound remaining in absence of NADPH after 1 hr by LC/MS/MS method

On to `CC(C)[N+](C)(CCOC(=O)C1c2ccccc2Oc2ccccc21)C(C)C.[Br-]` [PROPANTHELINE BROMIDE], for which the Stabilty in data set [1] came to 47.7%; in data set [2] it was 9.1%; in data set [3] it was 0.6%.

As for `Cc1[nH]c2ccccc2c1CC(=O)N[C@@H](Cc1ccccc1)C(=O)N(C)c1ccccc1`, the Stabilty in data set [4] was 85.6%; in [1] it was 87.3%; in data set [2], 83.4%; in [3], 86.5%. Besides, the EC50 in data set [5] stood at 0.28 µM. The CC50 in [6] was > 23.5 µM. In data set [7], this compound yielded a CLH of 2403 µL/min/mg. Moreover, the dissociation constant (Kd) in data set [8] is 2.4 µM. Moreover, the figures for the IC50 in [9] and in data set [11] were 0.23 µM and 0.056 µM, respectively. In addition, in data set [10], the inhibition result is “Active”. The outcome in data set [12] was Active.

As to `COc1ccc(N(C)C(=O)[C@H](Cc2ccccc2)NC(=O)Cn2cc(-c3ccccc3NC(=O)c3cccc(F)c3)nn2)cc1`, the EC50 in data set [5] is 3.3 µM. Moreover, the cytotoxic concentration (CC50) in data set [6] was > 16.5 µM. For the same compound, the Kd in data set [8] turned out to be 6.8 µM; in [13], 4.99 µM. Moreover, the selectivity ratio in data set [14] was > 4.99.

The compound `C[C@]12CC[C@H]3[C@@H](CCC4=CC(=O)CC[C@@]43C)[C@@H]1CC[C@@H]2O` [TESTOSTERONE] registered a t1/2 in data set [15] of 7.4 min. Besides, the CLH in data set [7] came to 188.3 µL/min/mg.

In the case of `COc1ccc(N(C)C(=O)[C@H](Cc2ccccc2)NC(=O)Cn2cc(-c3ccccc3NC(=O)c3ccccc3F)nn2)cc1`, the Stabilty in data set [4] turned out to be 107.4%; in [1] it was 91.3%; in data set [2], 94.6%; in data set [3] it was 86.9%; in [18], 122.1%. In addition, in data set [5], the EC50 is 3.13 µM. Moreover, the 50% cytotoxic concentration (CC50) in data set [6] is > 16.5 µM. The compound also displayed a t1/2 in data set [15] of 0.9 min. This compound also displayed a CLH in data set [7] of 1559.4 µL/min/mg. In addition, the dissociation constant (Kd) in data set [8] turned out to be 7.95 µM; in data set [13] it was 6.04 µM. The result in [16] was inactive. The half-inhibitory concentration (IC50) stood at 0.32 µM in [9] and 8.18 µM in data set [11]. Also, the inhibition at 10 µM in [10] (Human immunodeficiency virus 1, NL4-3, U87/CD4/CCR5) came to 15%. Besides, the selectivity ratio in data set [14] was > 5.27. Moreover, the fraction remaining at 1 h in data set [17] came out at 0.3%.

With `COc1ccc(N(C)C(=O)[C@H](Cc2ccccc2)NC(=O)Cn2cc(-c3cccc(N)c3)nn2)cc1`, the EC50 in [5] amounted to 3.3 µM. Also, the CC50 in data set [6] was > 20.6 µM. The values for the Kd in [8] and in data set [13] were 15.8 µM and 4 µM, respectively. In [14], the selectivity ratio was > 6.25.

As for `COc1ccc(N(C)C(=O)[C@H](Cc2ccccc2)NC(=O)Cn2cc(-c3cccc(NC(=O)c4cccc(F)c4)c3)nn2)cc1`, the EC50 in [5] came out at 9.56 µM. Also, the CC50 in [6] was > 16.5 µM. Besides, in data set [14], the selectivity ratio is > 1.72.

Take `COc1ccc(N(C)C(=O)[C@H](Cc2ccccc2)NC(=O)Cn2cc(-c3ccccc3NC(=O)c3ccccc3)nn2)cc1`: the EC50 in data set [5] was 3.74 µM. The CC50 in data set [6] is > 17 µM. Moreover, the selectivity ratio in [14] was > 4.54.
